In experiment [1] the target is T1, Melanocyte-stimulating hormone receptor (Homo sapiens, UniProt Q01726). The experiment can be described thus: Agonist activity at human melanocortin receptor 1 expressed in human T-Rex-293 cells assessed as stimulation of intracellular cAMP accumulation incubated for 45 mins by LANCE cAMP assay. In kind it is functional, cell-based.
Experiment [2] has as its target T2, Melanocortin receptor 3 (Homo sapiens, UniProt P41968). The experiment can be described thus: Agonist activity at human melanocortin receptor 3 expressed in human T-REx-293 cells assessed as stimulation of intracellular cAMP accumulation incubated for 45 mins by LANCE cAMP assay. In kind it is functional, cell-based. Background: cAMP levels reflect the balance of adenylyl cyclase and phosphodiesterase activity.

Experiment [3] addresses T3, Melanocortin receptor 4 (Homo sapiens, UniProt P32245). The experiment can be described thus: Agonist activity at human melanocortin receptor 4 expressed in human T-REx-293 cells using low doxycycline assessed as stimulation of intracellular cAMP accumulation incubated for 45 mins by LANCE cAMP assay. Format: functional, cell-based.
Experiment [4] addresses T1, Melanocyte-stimulating hormone receptor. The experiment can be described thus: Displacement of [125I]-NDP-alpha-MSH from human MC1R expressed in HEK2936E cell membrane measured after 16-23 hrs by 1450 microbeta trilux scintillation proximity assay. Format: cell membranes. Background: Loss of bound radioactivity is the signal in a displacement assay; it reports binding, not function.

Experiment [5] addresses T2, Melanocortin receptor 3. The experiment can be described thus: Displacement of [125I]-NDP-alpha-MSH from human MC3R expressed in HEK2936E cell membrane measured after 16-23 hrs by 1450 microbeta trilux scintillation proximity assay. Format: cell membranes.
The target of experiment [6] is T3, Melanocortin receptor 4. The experiment can be described thus: Displacement of [125I]-NDP-alpha-MSH from human MC4R expressed in HEK2936E cell membrane measured after 16-23 hrs by 1450 microbeta trilux scintillation proximity assay. In kind it is cell membranes.
Experiment [7] deals with Melanocortin receptor 5 (Homo sapiens, UniProt P33032). The experiment can be described thus: Displacement of [125I]-NDP-alpha-MSH from human MC5R expressed in HEK2936E cell membrane measured after 16-23 hrs by 1450 microbeta trilux scintillation proximity assay. In kind it is cell membranes.
The species named for experiment [8] is Homo sapiens. The experiment can be described thus: Selectivity index, […] for displacement of [125I]-NDP-alpha-MSH from human MC1R […] for displacement of [125I]-NDP-alpha-MSH from human MC3R by competitive radioligand binding assay.
The species entered for experiment [9] is Homo sapiens. The experiment can be described thus: Selectivity index, […] for displacement of [125I]-NDP-alpha-MSH from human MC1R […] for displacement of [125I]-NDP-alpha-MSH from human MC4R by competitive radioligand binding assay.
Experiment [10] is filed under the species Homo sapiens. The experiment can be described thus: Selectivity index, […] for displacement of [125I]-NDP-alpha-MSH from human MC1R […] for displacement of [125I]-NDP-alpha-MSH from human MC5R by competitive radioligand binding assay.
The target of experiment [11] is T3, Melanocortin receptor 4. The experiment can be described thus: Agonist activity at human melanocortin receptor 4 expressed in human T-REx-293 cells using high doxycycline assessed as stimulation of intracellular cAMP accumulation incubated for 45 mins by LANCE cAMP assay. Format: functional.

T3 sequence (P32245 whole entry): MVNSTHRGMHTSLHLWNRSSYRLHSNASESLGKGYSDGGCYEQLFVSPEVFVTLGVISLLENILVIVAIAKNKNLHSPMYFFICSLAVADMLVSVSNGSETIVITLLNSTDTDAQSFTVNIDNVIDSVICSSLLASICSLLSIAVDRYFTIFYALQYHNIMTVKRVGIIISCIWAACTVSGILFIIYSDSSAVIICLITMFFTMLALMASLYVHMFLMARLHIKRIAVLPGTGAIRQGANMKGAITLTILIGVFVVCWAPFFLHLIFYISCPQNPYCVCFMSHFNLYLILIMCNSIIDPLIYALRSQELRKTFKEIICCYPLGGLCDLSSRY
T2 sequence (P41968 whole entry): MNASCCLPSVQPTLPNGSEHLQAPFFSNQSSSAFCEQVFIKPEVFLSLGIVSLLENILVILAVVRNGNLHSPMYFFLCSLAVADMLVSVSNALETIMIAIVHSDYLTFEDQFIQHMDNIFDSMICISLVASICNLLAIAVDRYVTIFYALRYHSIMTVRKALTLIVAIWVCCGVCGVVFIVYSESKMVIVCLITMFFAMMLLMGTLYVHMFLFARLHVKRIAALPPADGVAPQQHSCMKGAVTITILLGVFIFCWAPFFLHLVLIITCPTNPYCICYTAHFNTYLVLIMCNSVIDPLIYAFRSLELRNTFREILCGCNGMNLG
T1 sequence (Q01726 whole entry): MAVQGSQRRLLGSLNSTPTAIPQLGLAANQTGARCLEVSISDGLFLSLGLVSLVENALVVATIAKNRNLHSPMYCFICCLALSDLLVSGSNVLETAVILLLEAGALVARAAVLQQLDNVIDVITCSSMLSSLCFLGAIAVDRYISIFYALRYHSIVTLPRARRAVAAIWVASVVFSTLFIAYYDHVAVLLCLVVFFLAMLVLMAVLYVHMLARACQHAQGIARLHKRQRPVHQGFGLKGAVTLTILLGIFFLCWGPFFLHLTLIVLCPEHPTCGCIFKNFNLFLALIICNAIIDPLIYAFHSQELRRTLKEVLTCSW
Chain of Melanocortin receptor 5 (P33032 whole entry): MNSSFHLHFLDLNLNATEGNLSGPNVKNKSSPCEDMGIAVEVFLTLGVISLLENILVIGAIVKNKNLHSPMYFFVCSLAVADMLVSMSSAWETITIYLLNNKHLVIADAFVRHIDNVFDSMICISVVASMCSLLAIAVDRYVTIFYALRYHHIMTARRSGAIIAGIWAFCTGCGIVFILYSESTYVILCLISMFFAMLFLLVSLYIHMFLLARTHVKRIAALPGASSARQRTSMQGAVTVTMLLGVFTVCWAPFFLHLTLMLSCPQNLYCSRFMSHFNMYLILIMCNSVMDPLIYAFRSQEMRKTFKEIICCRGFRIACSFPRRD

Take `CC[C@H](C)[C@@H]1NC(=O)[C@@H]2CCCN2C(=O)[C@H](Cc2c[nH]c3ccccc23)NC(=O)[C@H](CCCNC(=N)N)N(C)C(=O)[C@@H](Cc2ccccc2)NC(=O)[C@H](Cc2c[nH]cn2)NC(=O)[C@H]([C@@H](C)O)NC(=O)[C@@H]2CSSC[C@H](NC1=O)C(=O)N[C@@H](Cc1c[nH]cn1)C(=O)N[C@H](Cc1ccccc1)C(=O)N(C)[C@@H](CCCNC(=N)N)C(=O)N(C)[C@@H](Cc1c[nH]c3ccccc13)C(=O)N[C@@H](CCCNC(=N)N)C(=O)N2`: the EC50 – broadly, the concentration that produces a half-maximal response – was below 0.0501 nM in experiment [1], 1.23 nM in experiment [2], 26.3 nM in experiment [3] and 0.977 nM in experiment [11]. Further, the Ki (commonly a dissociation constant, usually derived from enzyme kinetics or from competition with a known ligand) in experiment [4] is 0.0692 nM; in experiment [5], 51.3 nM; in experiment [6], 30.2 nM. The IC50 (as a rule, the concentration needed to halve the response being measured) in experiment [7] is 166 nM. Moreover, the Ratio in [8] was 30; in experiment [9] it was 30; in experiment [10], 3000.

For the origin of these results see ChEMBL document CHEMBL5034014, “Melanocortin 1 Receptor Agonists Based on a Bivalent, Bicyclic Peptide Framework” (J Med Chem, 2021).
